# Measured values from US11524944B2, “2-phenylpyrimidine-4-carboxamides as AHR inhibitors” (Bayer Aktiengesellschaft, priority 2017, dated 2022).
# Legend:
# Human AhR = biological target: T1, Human AhR (Homo sapiens, UniProt P35869); assay: Transactivation assay in human cell line (in vitro assay 1): antagonism; format: cell-based; settings: U87 glioblastoma cells, AHR inducible firefly luciferase reporter (DRE), 150 μM kynurenic acid, 20 hours
# T1 construct: host or cells: U87 glioblastoma cells, stably transfected with a DRE firefly luciferase reporter and a constitutive renilla reporter
# T1 sequence (P35869 11-848): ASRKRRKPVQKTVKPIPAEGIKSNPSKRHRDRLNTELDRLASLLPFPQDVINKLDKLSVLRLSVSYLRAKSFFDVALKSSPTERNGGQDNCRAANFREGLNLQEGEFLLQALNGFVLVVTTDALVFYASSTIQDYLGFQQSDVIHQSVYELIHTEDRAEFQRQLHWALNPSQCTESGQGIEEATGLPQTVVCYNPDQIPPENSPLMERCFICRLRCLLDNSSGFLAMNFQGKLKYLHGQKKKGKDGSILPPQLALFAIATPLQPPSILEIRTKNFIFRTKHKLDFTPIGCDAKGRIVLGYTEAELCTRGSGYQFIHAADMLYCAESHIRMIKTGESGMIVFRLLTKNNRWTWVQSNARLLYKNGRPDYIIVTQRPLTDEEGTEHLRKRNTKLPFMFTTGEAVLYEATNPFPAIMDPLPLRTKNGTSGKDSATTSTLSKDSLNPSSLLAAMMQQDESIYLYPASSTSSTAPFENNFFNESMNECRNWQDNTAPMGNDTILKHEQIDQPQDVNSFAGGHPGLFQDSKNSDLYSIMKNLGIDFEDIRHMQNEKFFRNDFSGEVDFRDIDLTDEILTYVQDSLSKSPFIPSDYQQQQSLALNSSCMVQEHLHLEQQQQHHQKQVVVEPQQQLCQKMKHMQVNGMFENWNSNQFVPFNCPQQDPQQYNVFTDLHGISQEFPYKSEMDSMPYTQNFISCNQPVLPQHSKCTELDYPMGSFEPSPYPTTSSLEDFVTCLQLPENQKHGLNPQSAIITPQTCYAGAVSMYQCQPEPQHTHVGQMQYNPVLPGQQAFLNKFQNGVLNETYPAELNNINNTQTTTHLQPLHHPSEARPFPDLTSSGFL
# Outline: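 U87 glioblastoma cells with endogenous AHR, stably transfected with a DRE-driven firefly luciferase reporter and a constitutive Renilla reporter. Cells prestimulated with kynurenic acid before compound addition. Dual luciferase read-out, with Renilla signal used to flag toxicity.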
# Mouse AhR = biological target: T2, Mouse AhR (Mus musculus, UniProt P30561); assay: Transactivation assay in mouse cell line (in vitro assay 2): antagonism; format: cell-based; settings: Hepa 1c1c7 cells, AHR inducible firefly luciferase reporter (DRE), 200 μM kynurenic acid, 20 hours
# T2 sequence (P30561 1-848 P471L/N533S/M589L): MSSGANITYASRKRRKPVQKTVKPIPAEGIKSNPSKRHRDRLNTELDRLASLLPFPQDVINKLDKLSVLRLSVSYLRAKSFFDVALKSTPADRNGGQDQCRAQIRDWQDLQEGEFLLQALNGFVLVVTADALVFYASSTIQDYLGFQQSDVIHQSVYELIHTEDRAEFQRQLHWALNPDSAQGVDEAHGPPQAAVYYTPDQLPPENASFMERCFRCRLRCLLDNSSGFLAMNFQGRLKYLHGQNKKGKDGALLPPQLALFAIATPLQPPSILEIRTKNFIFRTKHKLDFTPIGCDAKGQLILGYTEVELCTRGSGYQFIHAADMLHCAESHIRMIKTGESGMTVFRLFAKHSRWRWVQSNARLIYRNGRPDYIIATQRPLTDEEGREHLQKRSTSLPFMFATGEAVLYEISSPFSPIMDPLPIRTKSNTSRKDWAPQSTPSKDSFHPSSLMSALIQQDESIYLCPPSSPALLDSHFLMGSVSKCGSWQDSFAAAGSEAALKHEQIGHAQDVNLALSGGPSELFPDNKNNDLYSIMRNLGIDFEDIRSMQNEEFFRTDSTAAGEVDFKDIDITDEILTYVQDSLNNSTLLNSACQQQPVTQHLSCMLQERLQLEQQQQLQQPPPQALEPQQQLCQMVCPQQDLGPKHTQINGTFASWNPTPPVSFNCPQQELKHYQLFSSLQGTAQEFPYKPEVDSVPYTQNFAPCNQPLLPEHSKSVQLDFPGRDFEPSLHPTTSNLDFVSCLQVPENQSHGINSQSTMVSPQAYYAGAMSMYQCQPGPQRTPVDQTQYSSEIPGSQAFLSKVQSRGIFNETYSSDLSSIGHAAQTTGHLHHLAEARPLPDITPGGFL
# Protocol: Examples were tested in selected biological assays one or more times. When tested more than once, data are reported as either average values or as median values, wherein • the average value, also referred to as the arithmetic mean value, represents the sum of the values obtained divided by the number of times tested, and • the median value represents the middle number of the group of values when ranked in ascending or descending order. If the number of values in the data set is odd, the median is the middle value. If the number of values in the data set is even, the median is the arithmetic mean of the two middle values.
# Transactivation Assay in Mouse Cell Line (In Vitro Assay 2)
# Transactivation assay was carried out in Hepa 1c1c7 cells (ATCC #CRL-2026) endogenously expressing AHR. In addition the cells were stably transfected with an AHR inducible firefly luciferase reporter gene construct that carried AHR-binding sites (DRE) in its promoter. Kynurenic acid is an endogenous AHR activating ligand and was used to prestimulate test cells prior to testing the antagonistic properties of compounds.
# In Vitro Assay 2: Antagonism in Mouse Cell Line
# Firefly luciferase activity was determined by the SteadyGlo Luciferase Assay System (Promega, #E2550).
SMILES,IC50 (Human AhR) [nM],IC50 (Mouse AhR) [nM]
"C[C@@H](CO)NC(=O)c1cc(-c2ccc(Cl)cc2)nc(-c2ccc(F)c(Cl)c2)n1 [Example 66, 2-(3-chloro-4-fluorophenyl)-6-(4-chlorophenyl)-N-[(2S)-1-hydroxypropan-2-yl]pyrimidine-4-carboxamide]",23.5,148
"O=C(NC1CCCC(F)(F)C1O)c1cc(-c2ccc(OC(F)(F)F)cc2)nc(-c2cccc(F)c2)n1 (stereo not shown) [Example 80, N-(3,3-difluoro-2-hydroxycyclohexyl)-2-(3-fluorophenyl)-6-[4-(trifluoromethoxy)phenyl]pyrimidine-4-carboxamide]",6.43,6.91

# Continued, values first:
IC50 (Human AhR) [nM],IC50 (Mouse AhR) [nM],SMILES
19.3,215,"C[C@@H](CO)NC(=O)c1cc(-c2ccc(Cl)cc2)nc(-c2cccc(C#N)c2)n1 [Example 70, 6-(4-chlorophenyl)-2-(3-cyanophenyl)-N-[(2S)-1-hydroxypropan-2-yl]pyrimidine-4-carboxamide]"
36.8,81.5,"COc1cc(F)cc(-c2nc(C(=O)N[C@@H](C)CO)cc(-c3ccc(Cl)cc3)n2)c1 [Example 76, 6-(4-chlorophenyl)-2-(3-fluoro-5-methoxyphenyl)-N-[(2S)-1-hydroxypropan-2-yl]pyrimidine-4-carboxamide]"
5.3,2.37,"CC(NC(=O)c1cc(-c2ccc(OC(F)(F)F)cc2)nc(-c2cccc(F)c2)n1)C(O)CO (stereo not shown) [Example 79, N-(3,4-dihydroxybutan-2-yl)-2-(3-fluorophenyl)-6-[4-(trifluoromethoxy)phenyl]pyrimidine-4-carboxamide]"
